# Square brackets hold non-standard residues; d marks the D form. Ends that are not written are not given here. Peptide text beside a SMILES is read from it. * marks the point of attachment. Cbz = O=C(OCc1ccccc1)*; Aib = CC(C)(N)C(=O)O
# What was measured:
# [1] = tested on: NIH3T3 cells; experiment: NIH3T3 cell viability, MTS assay; assay type: cell-based; conditions: 10 μg/mL, 48 hours
# Method: CT26 and NIH3T3 cells (2,000 cells per well) were first cultured in complete medium in 96-well culture plates, and 24 hours later the medium was replaced with serum-free medium. […] Cells were incubated for an additional 48 hours and assayed for viability using MTS assays kit (Promega) according to the manufacturer's protocol.
# [2] = tested on: CT26 cells; experiment: Tumor-load study: CT26 flank tumors in BALB/c mice; assay type: in vivo, mouse; conditions: for flank tumor volume / flank tumor weight: Example 3, 10 mg/kg subcutaneous daily for 15 days
# Method: (§1) 6-week-old BALB/c female mice were given a 100 μL subcutaneous injection of 1×10^6 CT26 cells prepared as a single cell suspension in PBS, and the mice were treated with bHDLor BHDLat 10 mg/kg administered subcutaneously (SQ) daily for 15 days. The mice were sacrificed and tumor weights were measured.
# 6-week-old BALB/c female mice were given a 100 μl subcutaneous injection of 1×10^6 CT26 cells prepared as a single cell suspension in PBS, treated with peptide at 10 mg/kg by SQ daily for 15 days.
# The mice were killed and tumor weights were measured. The tumor volumes were measured using the formula V=½ (L×W^2).
# as §1, with “Six-week-old” for “6-week-old”, “[…]” for “μL”, “sc-4F or L-4F at” for “bHDLor BHDLat”, “subcutaneously” for “subcutaneously (SQ)”
# [3] = tested on: CT26 cells; experiment: CT26 cell viability, MTS assay; conditions: for Cell viability reduced by, compared with control: Example 3, CT26 cells, 10 μg/ml, 48 hours; for CT26 cell viability vs vehicle-treated controls: Example 6, MTS assay, within 48 hours of treatment
# Method: CT26 cell line derived from N-nitroso-N-methyl urethane-induced mouse colon carcinoma of BALB/c origin was purchased from the American Type Culture Collection (ATCC). CT26 cells (2,000 cells per well) were first cultured in complete medium in 96-well culture plates, and 24 hours later the medium was replaced with serum free medium. Following an overnight incubation, the cells were either treated with vehicle (control), or treated with 10 μg/mL of either bHDL. The bHDL were dissolved in H2O. Cells were incubated for an additional 48 hours and assayed for viability using the MTS assays kit (Promega) according to the manufacturer's protocol.
# CT26 cell line derived from N-nitroso-N-methyl urethane-induced mouse colon carcinoma of BALB/c origin was purchased from the American Type Culture Collection. CT26 cells (2,000 cells per well) were first cultured in complete medium in 96-well culture plates, and 24 hours later the medium was replaced with serum-free medium. Following an overnight incubation, the cells were either treated with vehicle (control) or treated with 10 mg/mL of either L-4F or G* peptide. The peptides were dissolved in H2O. Cells were incubated for an additional 48 hours and assayed for viability using the MTS assay kit (Promega) according to the manufacturer's protocol.
# [4] = tested on: HIF-1α; experiment: HIF-1α protein expression in human ovarian cancer cell lines, Western blot; assay type: cell-based; conditions: OV2008 cells; MG-132 10 μM 3 h, L-4F 10 μg/ml 1 h, insulin 200 nM 4 h
# Method: OV2008 cells were cultured in RPMI 1640 media with 10% fetal bovine serum, penicillin (100 U/ml), streptomycin (100 μg/ml), 1× minimal essential medium nonessential amino acid solution (Invitrogen, Carlsbad, Calif.), and insulin (0.25 U/ml) (Invitrogen). CAOV-3 cells were cultured in complete media consisting of Dulbecco's modified Eagle's medium with high glucose and L-glutamine (2 mM), 10% fetal bovine serum, penicillin (100 U/ml), streptomycin (100 μg/ml), and insulin (0.02 U/ml). To create hypoxic conditions, cells were transferred to a hypoxic chamber (model 3130; Thermo Fisher Scientific, Waltham, Mass.), where they were maintained at 37° C. in an atmosphere containing 5% CO2, 1% O2, and 94% N2. L-4F (the peptide Ac-D-W-F-K-A-F-Y-D-K-V-A-E-K-F-K-E-A-F-NH2 (SEQ ID NO: 12) synthesized from all L amino acids) was dissolved in water at 1 mg/ml (freshly prepared every time) and used between 1 and 10 μg/ml. L-5F was synthesized by Peptisyntha Inc. (Torrance, Calif.), dissolved in ABCT buffer (50 mM ammonium bicarbonate, pH 7.0, containing 0.1 mg/ml Tween 20) at 1 mg/ml, and diluted to the required concentrations before use. Cobalt chloride (CoCl2), insulin, cycloheximide (CHX), and N-(benzyloxycarbonyl)leucinylleucinylleucinal-Z-Leu-Leu-Leu-al (MG-132) were purchased from Sigma-Aldrich (St. Louis, Mo.). LPA (Avanti Polar Lipids, Alabaster, Ala.) in chloroform was dried as recommended by the manufacturer, dissolved in ethanol at a concentration of 20 mM as a stock solution, and diluted to the required concentrations in the corresponding cell culture media before use.
# Western blot analyses were performed as described previously (Gao et al., 2011). In brief, cell lysates were collected in a lysis buffer containing 0.1 MNaCl, 5 mM EDTA, 50 μM sodium orthovanadate, 1% Triton X-100, and protease inhibitor tablet (Roche Diagnostics, Indianapolis, Ind.) in 50 mM Tris buffer, pH 7.5, loaded onto 4 to 12% Bis-Tris gel (Invitrogen), transferred to polyvinylidene difluoride membrane, and incubated with the appropriate antibodies. Anti-pThr^202/Tyr^204-Erk, anti-Erk, anti-pThr^389-p70 S6 kinase, anti-p70 S6 kinase, anti-pSer^473-Akt, and anti-Akt antibodies were purchased from Cell Signaling Technology (Danvers, Mass.); mouse anti-human HIF-1α antibody was purchased from BD Pharmingen (San Diego, Calif.); rabbit anti-mouse HIF-1α antibody was purchased from Abcam Inc. (Cambridge, Mass.); and anti-GAPDH antibody was purchased from Santa Cruz Biotechnology Inc. (Santa Cruz, Calif.).
# [5] = tested on: CT26 cells; experiment: Pulmonary metastasis in vivo: CT26 lung tumors in BALB/c mice; parameters: species or system mouse; conditions: CT26 via tail vein
# Method: BALB/c mice were intravenously injected with 2×10^4 CT26 cells in 100 μL of PBS via tail vein injection and the mice were treated with bHDL at 10 mg/kg/day administered SQ for 3 weeks; or treated with bHDL at 100 mg/kg/day administered in a chow diet for 3 weeks. After 3 weeks treatment, the mice were sacrificed; lungs were harvested, weighed and fixed with Bouin's solution (Sigma). Tumor nodules on the lung surface were counted.
# BALB/c mice were intravenously injected with 2×10^4 CT26 cells in […] of PBS via tail vein injection and the mice were treated with L-4F or sc-4F at 10 mg/kg/d administered subcutaneously for 3 weeks, or treated with sc-4F or L-4F or G* peptide at 100 mg/kg/d administered in a chow diet for 3 weeks. After 3 weeks treatment, the mice were sacrificed; lungs were harvested, weighed, and fixed with Bouin solution (Sigma). Tumor nodules on the lung surface were counted.
# [6] = tested on: APC^min/+ mice; experiment: APC^min/+ mice study, intestinal tumors; assay type: in vivo; conditions: C57BL/6J-APC^min/+ mice; 100 mg/kg/d in mouse chow for 8 weeks
# Method: (§2) 6-week-old APC^Min/+ male mice on a C57BL/6J background were treated with bHDL 100 mg/kg/day administered in a chow diet. After 8 weeks treatment, mice were sacrificed. The entire intestine was immediately removed, fixed in formalin and 70% ethanol. The intestine was opened and examined under a dissecting microscope to count and measure the tumors.
# as §2, with “Six-week-oldAPC^min/+” for “6-week-old APC^Min/+”, “L-4F or sc-4F at” for “bHDL”, “mg/kg/d” for “mg/kg/day”
# [7] = tested on: NIH3T3 cells; experiment: UV-induced cell death, NIH3T3 cell viability; assay type: cell-based; conditions: pre-treatment 10 μg/ml for 24 hrs; UV 5, 10, 20 mJ/cm^2
# Method: NIH 3T3 ([…]) ells were seeded in 96 well plates in 4 separate plates. After 24 hrs, cells were starved overnight. Apo A-l was used at a concentration (10 μg/ml) to treat the cells for 24 hrs. After treatment of cells were washed with PBS. One plate was used as a control without UV treatment. The remaining three plates were used for UV treatment at 5, 10, and 20 mJ/cm^2. Following UV treatment, cells were given complete media and were cultured for another 24 hrs. Cell viability was measured for all the plates as described previously (Ganapathy E, et al., 2011, D-4F, an apoA-1 mimetic peptide inhibits proliferation and tumorigenicity of epithelial ovarian cancer cells by upregulating the antioxidant enzyme MnSOD, Int J Cancer 130:1071-1081).
# [8] = 10 mg/kg/d subcutaneously for 3 weeks
# [9] = 100 mg/kg/d in chow diet for 3 weeks
molecule,measurement,setting,value
"CC(=O)N[C@@H](CC(C)C)C(=O)N[C@@H](CCCNC(=N)N)C(=O)N[C@@H](CCCCN)C(=O)N[C@@H](CC(C)C)C(=O)N[C@@H](CCCNC(=N)N)C(=O)N[C@@H](CCCCN)C(=O)N[C@@H](CCCNC(=N)N)C(=O)N[C@@H](CC(C)C)C(=O)N[C@@H](CC(C)C)C(=O)N[C@@H](CCCNC(=N)N)C(=O)N[C@@H](CC(=O)O)C(=O)N[C@@H](Cc1c[nH]c2ccccc12)C(=O)N[C@@H](CC(C)C)C(=O)N[C@@H](CCCCN)C(=O)N[C@@H](C)C(=O)N[C@@H](Cc1ccccc1)C(=O)N[C@@H](Cc1ccc(O)cc1)C(=O)N[C@@H](CC(=O)O)C(=O)N[C@@H](CCCCN)C(=O)N[C@H](C(=O)NC(C)(C)C(=O)N[C@@H](CCC(=O)O)C(=O)N[C@@H](CCCCN)C(=O)N[C@@H](CC(C)C)C(=O)N[C@@H](CCCCN)C(=O)N[C@@H](CCC(=O)O)C(=O)NC(C)(C)C(=O)N[C@@H](Cc1ccccc1)C(N)=O)C(C)C [28AA-2, LRKLRKRLLRDWLKAFYDKV-Aib-E-K-L-K-E-Aib-F] (HELM PEPTIDE1{[ac].L.R.K.L.R.K.R.L.L.R.D.W.L.K.A.F.Y.D.K.V.[Aib].E.K.L.K.E.[Aib].F.[am]}$$$$V2.0; N-terminus and C-terminus assumed)",NIH3T3 cell viability,[1],not affected
"CC(=O)N[C@@H](CC(=O)O)C(=O)N[C@@H](Cc1c[nH]c2ccccc12)C(=O)N[C@@H](Cc1ccccc1)C(=O)N[C@@H](CCCCN)C(=O)N[C@@H](C)C(=O)N[C@@H](Cc1ccccc1)C(=O)N[C@@H](Cc1ccc(O)cc1)C(=O)N[C@@H](CC(=O)O)C(=O)N[C@@H](CCCCN)C(=O)N[C@H](C(=O)NC(C)(C)C(=O)N[C@@H](CCC(=O)O)C(=O)N[C@@H](CCCCN)C(=O)N[C@@H](Cc1ccccc1)C(=O)N[C@@H](CCCCN)C(=O)N[C@@H](CCC(=O)O)C(=O)NC(C)(C)C(=O)N[C@@H](Cc1ccccc1)C(N)=O)C(C)C [L-4F2, Ac-D-W-F-K-A-F-Y-D-K-V-Aib-E-K-F-K-E-Aib-F-NH2] (HELM PEPTIDE1{[ac].D.W.F.K.A.F.Y.D.K.V.[Aib].E.K.F.K.E.[Aib].F.[am]}$$$$V2.0)",NIH3T3 cell viability,[1],not affected
same,flank tumor volume,[2],197 mm^3
same,flank tumor weight,[2],118 mg
same,"Cell viability reduced by, compared with control",[3],more than 30%
same,CT26 cell viability vs vehicle-treated controls,[3],reduced cell viability
"CC(C)C[C@@H](C=O)NC(=O)[C@H](CC(C)C)NC(=O)[C@H](CC(C)C)NC(=O)OCc1ccccc1 [MG-132, N-(benzyloxycarbonyl)leucinylleucinylleucinal-Z-Leu-Leu-Leu-al, reference compound] (Cbz-Leu-Leu-Leu-aldehyde)",effect on the L-4F inhibition of insulin-mediated HIF-1α expression,[4],led to a reversal of the inhibitory effect of L-4F
"Ac-D-W-F-A-K-D-Y-F-K-K-A-F-V-E-E-F-A-K-NH2 (Ac-DWFAKDYFKKAFVEEFAK-NH2) [sc-4F, reference compound]",flank tumor volume,[2],555 mm^3
same,flank tumor weight,[2],273 mg
same,flank tumor weights,"[2]; Example 5, 10 mg/kg subcutaneously daily for 15 days",778 mg
same,lung weights,[5]; [8],280 mg
same,tumor numbers counted on the lung surface,[5]; [8],33
same,lung weights,[5]; [9],296 mg
same,tumor numbers on the lung surface,[5]; [9],21
same,numbers of tumors of diameter 1-3 mm,[6],56.5
same,numbers of tumors of diameter >3 mm,[6],12.8
same,"total tumor numbers in the intestinal tract, percent of the control",[6],100%
"Ac-LRKLRKRLLRDWLKAFYDKVAEKLKEAF-NH2 [28AA, LRKLRKRLLRDWLKAFYDKVAEKLKEAF, reference compound]",NIH3T3 cell viability,[1],not affected
same,flank tumor weight,[2],188 mg
same,"Cell viability reduced by, compared with control",[3],70%
ApoA-II: a protein that is also associated with HDL like apoA-I [reference compound],UV-induced cell death (cell viability),[7],did not prevent UV-induced cell death
"ApoA-l: full-length and unmodified ApoA-I, typically human, a 28.2 kDa protein of 244 amino acids",UV-induced cell death (cell viability),[7],protects NIH3T3 cells from UV-induced cell death
"K4,15-4F2: SEQ ID NO: 28; K4,15-4F further modified with Aib substitution for alanine at positions 11 and 17 (DWFRAFYDKV[Aib]EKFRE[Aib]F)",CT26 cell viability vs vehicle-treated controls,[3],reduced cell viability
"K4,15-4F: SEQ ID NO: 27; based on K14,15 peptides of Nayyar et al., lysines substituted with arginines at residues 4 and 15 (DWFRAFYDKVAEKFREAF; synthetic peptide mimetic)",CT26 cell viability vs vehicle-treated controls,[3],reduced cell viability
LRKLRKRLLR LVGRQLEEFL (LRKLRKRLLRLVGRQLEEFL; synthetic peptide mimetic) [20AA],CT26 cell viability vs vehicle-treated controls,[3],reduced cell viability

# — patent US9241976B2, “Use of HDL-related molecules to treat and prevent proinflammatory conditions” (THE REGENTS OF THE UNIVERSITY OF CALIFORNIA, priority 2011, dated 2016)
